Source: article PMC11267547, “Advancing drug discovery through assay development: a survey of tool compounds within the human solute carrier superfamily” (Frontiers in Pharmacology, 2024)
Where two headings read alike, the source gives them in different places.

Key:
Type in all cases: cell-based
SLC1A2 = SLC1A2 (Homo sapiens, UniProt P43004); test: Echo-MS assay, uptake of labeled glutamic acid in dox-induced HEK293–JumpIn–SLC1A2 (EAAT2) cells; design: expressed in transfected cells; host or cells: Jump In T-REx HEK293
Chain of SLC1A2 (P43004 whole entry): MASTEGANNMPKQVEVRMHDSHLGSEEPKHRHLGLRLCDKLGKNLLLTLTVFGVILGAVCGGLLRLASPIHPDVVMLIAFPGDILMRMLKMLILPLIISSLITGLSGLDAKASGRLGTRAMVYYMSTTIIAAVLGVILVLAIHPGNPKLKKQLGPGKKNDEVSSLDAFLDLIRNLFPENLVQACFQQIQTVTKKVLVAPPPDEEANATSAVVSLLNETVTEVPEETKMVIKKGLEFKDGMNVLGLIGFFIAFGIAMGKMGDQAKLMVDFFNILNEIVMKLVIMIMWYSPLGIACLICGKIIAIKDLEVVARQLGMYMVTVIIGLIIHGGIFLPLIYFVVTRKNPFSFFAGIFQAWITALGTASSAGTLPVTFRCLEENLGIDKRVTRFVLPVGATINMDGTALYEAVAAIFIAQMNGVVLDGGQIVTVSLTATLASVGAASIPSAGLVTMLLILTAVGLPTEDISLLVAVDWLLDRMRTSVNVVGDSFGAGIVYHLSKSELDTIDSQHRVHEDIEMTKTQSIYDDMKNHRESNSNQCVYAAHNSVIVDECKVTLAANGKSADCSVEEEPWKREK
Method: Before the Echo-MS experiment, 15,000 cells per well were seeded into the wells of a 384-well plate (Beckman Coulter) and induced with […] doxycycline. […] The next day, compounds with stock solutions of 10 mM were first diluted to a final concentration of 90 µM before starting a 10-stage dilution series with a dilution factor of 1:3 with the CyBio FeliX pipetting robot. After the supernatant in the plate of the cell plate assay was discarded (BlueWasher, BlueCatBio), 10 µL of potassium/wash buffer including the compound dilution series was transferred by the pipetting robot (FeliX, CyBio), yielding a highest final concentration of 30 µM compound per well. After an incubation time of 15 min, 20 μL of L-Glutamic acid-13C5,15N with a concentration of 300 µM was added and incubated in an incubator at 37°C, 7.5% CO2, and 95% humidity. After 1 h incubation time, the wells were washed with 70 µL potassium buffer per well, and the supernatant was discarded before the precipitation process was started by adding 90 µL/well precipitation reagent (60% MeOH, 29% H2O, 11% formic acid) using a Multidrop Combi reagent dispenser (Thermo Fisher Scientific). After 30 min on the shaker at 500 rpm, the plates were centrifuged for 20 min at 2,000 rpm. Finally, 40 µL/well was transferred on qualified 384-well plates and then measured with Echo-MS/ADE-MS (Sciex). ADE-MS measurements were performed on an ADE-MS device (Sciex) operated with Sciex OS software (version 2.1.6.59781). A carrier solvent (60% acetonitrile, 39% H2O, and 1% formic acid) was used at a constant flow rate of 300 μL/min. For all samples, an ejection volume of 5 nL (2 droplets) and a repetition rate of 2.5 s/well were used. Triple Quad 6500+ was operated in a positive mode using the following settings: vaporizer temperature 450°C, spray voltage 5500 V, ion source gas 1: 90 psi, ion source gas 2: 70 psi, curtain gas 20 psi, CAD gas 9 psi, dwell time […], DP 35 V, EP 10 V, CE 14 V, and CXP 18 V. Data were processed with Sciex OS and further processed with Genedata Screener (version 19.0.9-Standard). Transporter inhibition by the compounds was tracked by analyzing the MS signal area values of uptaken labeled glutamic acid into the cell. The signal ratio of the reaction product to the respective standard was calculated to diminish variations ascribed to the sample preparation procedure or the MS readout. Average control values were calculated and set to 100% activity (high controls) and 0% activity (low controls), while the response values of compound-containing wells were normalized against the controls and expressed as the percentage of control (PoC).

SLC13A3 = biological target: T1, SLC13A3 (Homo sapiens, UniProt Q8WWT9); test: RESOLUTE assay on SLC13A3
T1 construct: expressed in transfected cells; host or cells: Jump In T-REx HEK293 (general cell-line paragraph)
T1 sequence (Q8WWT9 1-602): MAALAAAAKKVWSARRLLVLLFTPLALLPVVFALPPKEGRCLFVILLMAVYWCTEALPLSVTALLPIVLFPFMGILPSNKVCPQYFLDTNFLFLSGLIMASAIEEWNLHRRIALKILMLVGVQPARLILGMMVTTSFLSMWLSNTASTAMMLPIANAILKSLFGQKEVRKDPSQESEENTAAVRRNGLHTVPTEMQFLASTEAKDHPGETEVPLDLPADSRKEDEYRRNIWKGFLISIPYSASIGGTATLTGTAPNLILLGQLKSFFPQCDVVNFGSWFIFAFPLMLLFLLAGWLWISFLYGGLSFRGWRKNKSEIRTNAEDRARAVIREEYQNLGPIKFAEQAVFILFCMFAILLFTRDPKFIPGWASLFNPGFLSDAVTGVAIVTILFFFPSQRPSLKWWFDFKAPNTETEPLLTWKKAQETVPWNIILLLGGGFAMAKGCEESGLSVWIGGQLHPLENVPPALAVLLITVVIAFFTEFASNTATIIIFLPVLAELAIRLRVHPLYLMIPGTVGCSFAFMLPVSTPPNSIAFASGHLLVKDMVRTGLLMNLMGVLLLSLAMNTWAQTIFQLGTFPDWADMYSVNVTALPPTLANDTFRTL
Method: (§1) FLIPR Membrane Potential Blue Dye was used to detect the compound activities for those membrane transporters that are electrogenic or whose activity is associated with changes in membrane potential, as previously described ([Jensen and BräunerOsborne, 2004]). In brief, cells are seeded at cell line-specific density in black clear-bottom poly-D-Lysine-coated 384-well plates (Greiner Bio-One) in DMEM high-glucose medium with 10% FBS, 1% P/S, and 2 mM UltraGlutamine I (25 µL/well). Furthermore, 24 h after seeding, the culture medium is removed, and the cells are loaded with 20 µL/well of 0.5 X FMP Blue Dye in assay buffer (modified Tyrode’s buffer, 130 mM NaCl, 5 mM KCl, 1 mM MgCl2, 2 mM CaCl2, 5 mM NaHCO3, and 20 mM HEPES pH 7.4). The plates are subsequently incubated for at least 30 min at room temperature in the dark. Then, 10 µL/well of test compounds and controls is added at defined concentrations (0.5% DMSO final conc.) in the FLIPR TETRA instrument (Molecular Devices), and emitted fluorescence is recorded using a λexc 510–545-nm/λem 565–625-nm filter. The dose–response curves for the 19 compounds were prepared starting from 3 µM (final top concentration), the half-log serial dilution factor. For data analysis, Genedata Screener 19.0 software was used.
(§2) The robust Z prime factor (RZ’ factor) was calculated with the following formula: RZ^′=1−3∗RSDMAX+RSDMIN/AbsMAX − MIN, where the RZ’ factor is based on the same formula as the Z′ factor ([Zhang et al., 1999]) but standard deviations and means are replaced by the robust standard deviations and medians, respectively. Curve fitting profiles were performed on each dose–response curve with the analyzer module of Genedata Screener 19.0 on % activity.

SLC7A3 = biological target: T2, SLC7A3 (Homo sapiens, UniProt Q8WY07); test: RESOLUTE assay on SLC7A3
T2 construct: expressed in transfected cells; host or cells: Jump In T-REx HEK293 (general cell-line paragraph)
T2 sequence (Q8WY07 whole entry): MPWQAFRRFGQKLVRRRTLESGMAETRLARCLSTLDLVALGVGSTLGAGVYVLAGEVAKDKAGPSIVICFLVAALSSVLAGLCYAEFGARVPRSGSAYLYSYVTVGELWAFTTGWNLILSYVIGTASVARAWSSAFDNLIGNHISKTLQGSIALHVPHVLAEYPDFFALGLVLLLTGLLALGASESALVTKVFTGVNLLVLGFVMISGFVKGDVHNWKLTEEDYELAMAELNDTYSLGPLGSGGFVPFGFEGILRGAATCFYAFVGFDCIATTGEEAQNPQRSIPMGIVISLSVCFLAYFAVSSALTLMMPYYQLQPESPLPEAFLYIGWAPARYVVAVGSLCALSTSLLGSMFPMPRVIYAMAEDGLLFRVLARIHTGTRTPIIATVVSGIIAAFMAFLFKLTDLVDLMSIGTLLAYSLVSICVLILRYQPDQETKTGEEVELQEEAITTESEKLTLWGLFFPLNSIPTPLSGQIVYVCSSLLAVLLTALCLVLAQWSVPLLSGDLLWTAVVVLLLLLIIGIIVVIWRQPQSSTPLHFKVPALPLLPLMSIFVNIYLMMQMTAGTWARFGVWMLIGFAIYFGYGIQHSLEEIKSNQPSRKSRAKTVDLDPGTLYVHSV
Method: as §1, §2

SLC6A2 = SLC6A2 (Homo sapiens, UniProt P23975); test: Impedance-based TRACT assay, HEK293–JumpIn–NET (SLC6A2) cells; design: expressed in transfected cells; host or cells: Jump In T-REx HEK293
Chain of SLC6A2 (P23975 whole entry): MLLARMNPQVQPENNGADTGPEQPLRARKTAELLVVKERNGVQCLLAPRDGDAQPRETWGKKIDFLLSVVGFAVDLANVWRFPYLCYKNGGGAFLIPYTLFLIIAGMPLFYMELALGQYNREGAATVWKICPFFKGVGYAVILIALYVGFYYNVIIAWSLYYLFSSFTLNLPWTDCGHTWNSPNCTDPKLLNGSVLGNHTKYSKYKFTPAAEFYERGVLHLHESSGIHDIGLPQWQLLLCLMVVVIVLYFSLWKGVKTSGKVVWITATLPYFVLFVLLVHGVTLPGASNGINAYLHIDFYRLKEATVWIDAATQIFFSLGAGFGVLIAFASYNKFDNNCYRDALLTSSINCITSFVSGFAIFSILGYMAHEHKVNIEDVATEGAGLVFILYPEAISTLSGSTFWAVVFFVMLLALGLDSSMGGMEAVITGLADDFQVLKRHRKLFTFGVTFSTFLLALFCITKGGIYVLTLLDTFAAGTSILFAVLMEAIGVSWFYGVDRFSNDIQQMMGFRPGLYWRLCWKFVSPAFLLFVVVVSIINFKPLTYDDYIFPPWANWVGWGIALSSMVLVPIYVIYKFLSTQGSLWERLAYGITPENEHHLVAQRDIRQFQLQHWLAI
Method: In brief, HEK293–JumpIn–NET (SLC6A2) or HEK293–JumpIn–CNT2 (SLC28A2) cells were seeded (60.000 cells/well) on an E-plate with 1 μg/mL doxycycline, and cell growth was monitored for 22 h using the xCELLigence real-time cell analyzer (RTCA) SP or MP system. […] Immediately after stimulation, changes in cellular response were monitored every 15 s for a total of 30 min.

[1] = target SLC1A2, assay EchoMS, read-out: pIC50 (act) (converted)
[2] = Flipr Membrane Potential-Blue-Dye, read-out: pIC50 (act), SLC13A3 (converted)
[3] = target SLC7A3, Flipr Membrane Potential-Blue-Dye, read-out: pIC50 (act) (converted)
[4] = Flipr Membrane Potential-Blue-Dye, read-out: pIC50 (act), SLC7A3 (converted)
[5] = target SLC6A2, assay TRACT, read-out: pIC50 (act) (converted)
[6] = dox-induced HEK293–JumpIn–SLC1A2 cells, top conc. 30 µM, read-out: pIC50, SLC1A2, EchoMS (converted)

Compound | IC50 (SLC1A2; [1]) | IC50 (SLC13A3; [2]) | IC50 (SLC7A3; [3]) | IC50 (SLC7A3; [4]) | IC50 (SLC6A2; [5]) | other results
CN1C2CCC1CC(OC(c1ccccc1)c1ccccc1)C2 (stereo not shown) [Benzotropine] | > 30 µM | > 3.16 µM | > 3.16 µM | – | – | –
Nc1nc2ccc(OC(F)(F)F)cc2s1 [Riluzole] | > 30 µM | > 3.16 µM | – | > 3.16 µM | > 10 µM | –
N[C@H](C(=O)O)[C@H](OCc1cccc(NC(=O)c2ccc(C(F)(F)F)cc2)c1)C(=O)O [TFB-TBOA] | 0.0088 µM | > 3.16 µM | – | > 3.16 µM | > 10 µM | IC50 (SLC1A2; [6]): 0.00794 µM
COc1ccc(C2C(C#N)=C(N)OC3=C2C(=O)CC(c2cccc4ccccc24)C3)cc1 (stereo not shown) [UCPH-101] | > 30 µM | > 3.16 µM | – | > 3.16 µM | > 10 µM | –
COCCOc1cc(CC2CCN(CCc3ccc4c(c3)C(=O)CCO4)CC2)ccc1Br [DSP-1053] | 11.7 µM | > 3.16 µM | > 3.16 µM | – | > 10 µM | –
CCOC(=O)N1CCC(=C2c3ccc(Cl)cc3CCc3cccnc32)CC1 [Loratadine] | > 30 µM | > 3.16 µM | > 3.16 µM | – | – | –
Cc1c(NC(=O)c2cc(C(N)=O)nc3cc(F)ccc23)c(C(F)(F)F)nn1Cc1ccc(C#N)cc1 [BAY-876] | > 30 µM | > 3.16 µM | > 3.16 µM | – | – | –
Fc1ccc(C(OCCN2CCN(CCCc3ccccc3)CC2)c2ccc(F)cc2)cc1 [Vanoxerine (GBR12909), Vanoxerine] | 19.7 µM | > 3.16 µM | – | > 3.16 µM | – | –
CCNC(=O)/C=C/c1cccc(Br)c1 [Cinromide] | > 30 µM | > 3.16 µM | > 3.16 µM | – | > 10 µM | –
CC(C)[C@H]1CN[C@H](C(=O)O)[C@H]1CC(=O)O [Dihydrokainate] | > 30 µM | > 3.16 µM | > 3.16 µM | – | > 10 µM | –
N#Cc1ccc(Nc2cnccc2SCc2ccccc2C(=O)O)c2ccccc12 [KPH2f] | > 30 µM | > 3.16 µM | > 3.16 µM | – | – | IC50 (SLC6A2; approximate value stated in text, read-out: IC50, SLC6A2): ~1 µM
NC(C(=O)O)C(OCc1ccccc1)C(=O)O (stereo not drawn) [Threo-beta-benzyloxyaspartic acid, Threo-beta-Benzyloxyaspartic acid] | 8.6 µM | > 3.16 µM | – | > 3.16 µM | > 10 µM | IC50 (SLC1A2; [6]): 7.94 µM
C=C(C)[C@H]1CN[C@H](C(=O)O)[C@H]1CC(=O)O [Kainic acid] | – | – | – | – | – | IC50 (SLC1A2): > 30 µM; IC50 (SLC13A3): > 3.16 µM; IC50 (SLC7A3): > 3.16 µM; IC50 (SLC6A2): > 10 µM
O=S(=O)(O)c1cc(N=C=S)ccc1/C=C/c1ccc(N=C=S)cc1S(=O)(=O)O [DIDS] | > 30 µM | > 3.16 µM | > 3.16 µM | – | > 10 µM | –
N[C@@H](CC(=O)Nc1ccc(Oc2cc(F)c(F)cc2Br)cc1)C(=O)O [WAY-213613] | 0.26 µM | > 3.16 µM | – | > 3.16 µM | – | IC50 (SLC1A2; [6]): 0.251 µM; IC50 (SLC6A2; dox-induced HEK293–JumpIn–SLC6A2 cells, 1 µM norepinephrine, read-out: pIC50, SLC6A2, TRACT (converted)): 1 µM
Cc1ccsc1C(=CCCN1CCC[C@@H](C(=O)O)C1)c1sccc1C [Tiagabine] | > 30 µM | > 3.16 µM | – | > 3.16 µM | > 10 µM | –
CC1C(C#N)=C(N)OC2=C1C(=O)CC(c1cccc3ccccc13)C2 (stereo not shown) [UCPH-102] | > 30 µM | > 3.16 µM | – | > 3.16 µM | > 10 µM | –
CNCCCN1c2ccccc2CCc2ccccc21 [Desipramine] | > 30 µM | > 3.16 µM | > 3.16 µM | – | – | –
